In the experiment the target is T1, human V1aR (Homo sapiens, UniProt P37288).
T1 construct: expressed in transfected cells
Put plainly: Agonist activity at vasopressin V1a receptors, cell-based FLIPR calcium assay. Particulars: for Emax: read-out: Efficacy Avg. (%). In outline:
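HEK Flp-In cells stably expressing human V1aR were loaded with Calcium 4 dye plus 2.5 mM probenecid for 1 h at 37 °C, then given half-log compound concentrations (final 0.1% DMSO) on FLIPR Tetra.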

Structures are written as SMILES. Where two headings read alike, the source gives them in different places. Starred links: 1 amine or outer side, 2 acyl side, 3 side chain; linkers in the order of their positions; H or OH if unused. Positions of bridges follow the written chain, without caps; N, C: chain ends. Non-standard residues stand in square brackets, D forms with d. Residues, ends and D or L forms follow the SMILES beside them. Chains are numbered I, II in the order given. *: point of attachment. X2 = N=C(N)N[C@@H](CCCCN[*:1])C(=O)[*:2]; dPhe(4-Cl) = N[C@H](Cc1ccc(Cl)cc1)C(=O)O; isoGln = NC(=O)[C@H](CCC(=O)[*:2])N[*:1]; d(εLys) = N[C@H](CCCCN[*:1])C(=O)[*:2]; εLys = N[C@@H](CCCCN[*:1])C(=O)[*:2]; Aad = N[C@@H](CCCC(=O)O)C(=O)O; Cit = NC(=O)NCCC[C@H](N)C(=O)O; Heptanoyl = CCCCCCC(=O)*; Orn = NCCC[C@H](N)C(=O)O; Dab = NCC[C@H](N)C(=O)O; PhAc = O=C(Cc1ccccc1)*

A word on the EC50: it is the concentration that produces a half-maximal response.

T1 sequence (P37288 whole entry): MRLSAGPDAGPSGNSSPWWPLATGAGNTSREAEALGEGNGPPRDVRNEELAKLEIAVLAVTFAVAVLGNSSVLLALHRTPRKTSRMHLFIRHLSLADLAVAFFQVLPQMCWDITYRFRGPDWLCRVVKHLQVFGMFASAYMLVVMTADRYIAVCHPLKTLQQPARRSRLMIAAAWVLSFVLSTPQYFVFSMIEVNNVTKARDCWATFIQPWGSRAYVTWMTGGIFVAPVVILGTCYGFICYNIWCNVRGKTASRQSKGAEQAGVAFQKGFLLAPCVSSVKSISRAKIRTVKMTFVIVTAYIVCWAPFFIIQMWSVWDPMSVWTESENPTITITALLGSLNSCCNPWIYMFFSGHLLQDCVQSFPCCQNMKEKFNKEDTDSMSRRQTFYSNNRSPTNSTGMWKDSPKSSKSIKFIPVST

Take `CC[C@H](C)[C@@H]1NC(=O)[C@H](Cc2ccccc2)NC(=O)[C@@H](N)CSSC[C@@H](C(=O)N2CCC[C@H]2C(=O)N[C@@H](CCCNC(=O)[C@@H](N)CCCCNC(=O)CC[C@H](NC(=O)[C@H](CCCNC(=N)N)NC(=O)[C@@H]2CCCN2C(=O)[C@H](CCCNC(=N)N)NC(=O)[C@H](CC(N)=O)NC(=O)[C@H](CCC(N)=O)NC(=O)[C@H](Cc2ccccc2)NC(=O)[C@@H](Cc2ccc(Cl)cc2)NC(=O)Cc2ccccc2)C(N)=O)C(=O)NCC(N)=O)NC(=O)[C@H](CC(N)=O)NC(=O)[C@H](CCC(N)=O)NC1=O` [Compound 25] (I: H-CFIQNCP[Orn]G-NH2 / II: PhAc-[dPhe(4-Cl)]FQNRPR[isoGln][εLys]; disulfide I:1-I:6; amide I:8-II:C): the EC50 stood at 1.4 nM and the Emax is 49%.
On to `CCCCCCC(=O)N[C@H](Cc1ccc(OC)cc1)C(=O)N[C@@H](Cc1ccccc1)C(=O)N[C@@H](CCC(N)=O)C(=O)N[C@@H](CC(N)=O)C(=O)N[C@@H](C)C(=O)N1CCC[C@H]1C(=O)N[C@@H](CCCNC(=N)N)C(=O)N[C@@H](CCC(=O)NCCCCCCNCCC[C@H](NC(=O)[C@@H]1CCCN1C(=O)[C@@H]1CSSC[C@H](N)C(=O)N[C@@H](Cc2ccccc2)C(=O)N[C@@H]([C@@H](C)CC)C(=O)N[C@@H](CCC(N)=O)C(=O)N[C@@H](CC(N)=O)C(=O)N1)C(=O)NCC(N)=O)C(N)=O` [Compound 17], for which the Emax was 62%. In addition, where the note is “HEK-flpin cells stably expressing hV1aR, intracellular calcium fluorescence, averaged, read-out: EC50 (Avg)”, the EC50 is 2.9 nM.
As to `CCCCCCC(=O)NCCCC[C@H](NC(=O)CC[C@H](NC(=O)[C@H](CCCNC(=N)N)NC(=O)[C@@H]1CCCN1C(=O)[C@H](C)NC(=O)[C@H](CC(N)=O)NC(=O)[C@H](CCC(N)=O)NC(=O)[C@H](Cc1ccccc1)NC(=O)[C@@H](Cc1ccc(OC)cc1)NC(=O)Cc1ccccc1)C(N)=O)C(=O)NCCCC[C@H](N)C(=O)NCC[C@H](NC(=O)[C@@H]1CCCN1C(=O)[C@@H]1CSSC[C@H](N)C(=O)N[C@@H](Cc2ccccc2)C(=O)N[C@@H]([C@@H](C)CC)C(=O)N[C@@H](CCC(N)=O)C(=O)N[C@@H](CC(N)=O)C(=O)N1)C(=O)NCC(N)=O` [Compound 43] (I: H-CFIQNCP[Dab]G-NH2 / II: PhAc-[dY](Me)FQNAPR[isoGln]K(Heptanoyl)[εLys]; disulfide I:1-I:6; amide I:8-II:C), the EC50 was 1.4 nM and the Emax is 59%.
Taken in the same sequence, the figures for `CC[C@H](C)[C@@H]1NC(=O)[C@H](Cc2ccccc2)NC(=O)[C@@H](N)CSSC[C@@H](C(=O)N2CCC[C@H]2C(=O)N[C@@H](CCCNCCCCCNC(=O)CC[C@H](NC(=O)[C@H](CCCNC(=N)N)NC(=O)[C@@H]2CCCN2C(=O)[C@H](CO)NC(=O)[C@H](CC(N)=O)NC(=O)[C@H](CCC(N)=O)NC(=O)[C@H](Cc2ccccc2)NC(=O)[C@@H](Cc2ccc(OC)cc2)NC(=O)Cc2ccccc2)C(N)=O)C(=O)NCC(N)=O)NC(=O)[C@H](CC(N)=O)NC(=O)[C@H](CCC(N)=O)NC1=O` [Compound 11] were 2.2 nM and 51%.
Taken in the same sequence, the figures for `CC[C@H](C)[C@@H]1NC(=O)[C@H](Cc2ccccc2)NC(=O)[C@@H](N)CSSC[C@@H](C(=O)N2CCC[C@H]2C(=O)N[C@@H](CCNC(=O)[C@H](N)CCCCNC(=O)[C@H](CCCCNC(C)=O)NC(=O)CC[C@H](NC(=O)[C@H](CCCNC(=N)N)NC(=O)[C@@H]2CCCN2C(=O)[C@H](C)NC(=O)[C@H](CC(N)=O)NC(=O)[C@H](CCC(N)=O)NC(=O)[C@H](Cc2ccccc2)NC(=O)[C@@H](Cc2ccc(OC)cc2)NC(=O)Cc2ccccc2)C(N)=O)C(=O)NCC(N)=O)NC(=O)[C@H](CC(N)=O)NC(=O)[C@H](CCCC(N)=O)NC1=O` [Compound 58] (I: H-CFI[Aad](NH2)NCP[Dab]G-NH2 / II: PhAc-[dY](Me)FQNAPR[isoGln]K(Ac)[d(εLys)]; disulfide I:1-I:6; amide I:8-II:C) were 2.6 nM and 26%.
Taken in the same sequence, the figures for `CC[C@H](C)[C@@H]1NC(=O)[C@H](Cc2ccccc2)NC(=O)[C@@H](N)CSSC[C@@H](C(=O)N2CCC[C@H]2C(=O)N[C@@H](CCNC(=O)[C@@H](N)CCCCNC(=O)CC[C@H](NC(=O)[C@H](CCCNC(=N)N)NC(=O)[C@@H]2CCCN2C(=O)[C@H](CCCNC(N)=O)NC(=O)[C@H](CC(N)=O)NC(=O)[C@H](CCC(N)=O)NC(=O)[C@H](Cc2ccccc2)NC(=O)[C@@H](Cc2ccc(OC)cc2)NC(=O)Cc2ccccc2)C(N)=O)C(=O)NCC(N)=O)NC(=O)[C@H](CC(N)=O)NC(=O)[C@H](CCC(N)=O)NC1=O` [Compound 44] (I: H-CFIQNCP[Dab]G-NH2 / II: PhAc-[dY](Me)FQN[Cit]PR[isoGln][εLys]; disulfide I:1-I:6; amide I:8-II:C) were 2 nM and 40%.
Take `CC[C@H](C)[C@@H]1NC(=O)[C@H](Cc2ccccc2)NC(=O)[C@@H](N)CSSC[C@@H](C(=O)N2CCC[C@H]2C(=O)N[C@@H](CCNC(=O)[C@H](N)CCCCNC(=O)CC[C@H](NC(=O)[C@H](CCCNC(=N)N)NC(=O)[C@@H]2CCCN2C(=O)[C@H](C)NC(=O)[C@H](CC(N)=O)NC(=O)[C@H](CCC(N)=O)NC(=O)[C@H](Cc2ccccc2)NC(=O)[C@@H](Cc2ccc(OC)cc2)NC(=O)Cc2ccccc2)C(N)=O)C(=O)NCC(N)=O)NC(=O)[C@H](CC(N)=O)NC(=O)[C@H](CCCC(N)=O)NC1=O` [Compound 51] (I: H-CFI[Aad](NH2)NCP[Dab]G-NH2 / II: PhAc-[dY](Me)FQNAPR[isoGln][d(εLys)]; disulfide I:1-I:6; amide I:8-II:C): the EC50 amounted to 1.4 nM and the Emax was found to be 43%.
`CC[C@H](C)[C@@H]1NC(=O)[C@H](Cc2ccccc2)NC(=O)[C@@H](N)CSSC[C@@H](C(=O)N2CCC[C@H]2C(=O)N[C@@H](CCNC(=O)[C@H](N)CCCCNC(=O)CC[C@H](NC(=O)[C@H](CCCNC(=N)N)NC(=O)[C@@H]2CCCN2C(=O)[C@H](CCCNC(N)=O)NC(=O)[C@H](CC(N)=O)NC(=O)[C@H](CCC(N)=O)NC(=O)[C@H](Cc2ccccc2)NC(=O)[C@@H](Cc2ccc(OC)cc2)NC(=O)Cc2ccccc2)C(N)=O)C(=O)NCC(N)=O)NC(=O)[C@H](CC(N)=O)NC(=O)[C@H](CCCC(N)=O)NC1=O` [Compound 52] (I: H-CFI[Aad](NH2)NCP[Dab]G-NH2 / II: PhAc-[dY](Me)FQN[Cit]PR[isoGln][d(εLys)]; disulfide I:1-I:6; amide I:8-II:C): the EC50 came out at 1.5 nM and the Emax came out at 47%.
`CC[C@H](C)[C@@H]1NC(=O)[C@H](Cc2ccccc2)NC(=O)[C@@H](N)CSSC[C@@H](C(=O)N2CCC[C@H]2C(=O)N[C@@H](CCNC(=O)[C@H](CCCCNC(=O)CC[C@H](NC(=O)[C@H](CCCNC(=N)N)NC(=O)[C@@H]2CCCN2C(=O)[C@H](C)NC(=O)[C@H](CC(N)=O)NC(=O)[C@H](CCC(N)=O)NC(=O)[C@H](Cc2ccccc2)NC(=O)[C@@H](Cc2ccc(OC)cc2)NC(=O)Cc2ccccc2)C(N)=O)NC(=N)N)C(=O)NCC(N)=O)NC(=O)[C@H](CC(N)=O)NC(=O)[C@H](CCC(N)=O)NC1=O` [Compound 29] (I: H-CFIQNCP[Dab]G-NH2 / II: PhAc-[dY](Me)FQNAPR[isoGln][X2]; disulfide I:1-I:6 (inferred); amide I:8-II:C (inferred)): the EC50 amounted to 1.2 nM and the Emax is 39%.

The record behind these values is US20160122386A1, “V1A RECEPTOR AGONISTS” (FERRING B.V., priority 2014, published 2016).
